Several values for one entry are separate records, joined by “and”; a condition that tells them apart may be missing. Equal entries are not always repeated. Where two headings read alike, the source gives them in different places.
How the values were obtained:
Type in all cases: cell-based
[1] = target: T1, protein kinases (human kinome) (Homo sapiens, UniProt O14976)
T1 sequence (O14976 1-1311): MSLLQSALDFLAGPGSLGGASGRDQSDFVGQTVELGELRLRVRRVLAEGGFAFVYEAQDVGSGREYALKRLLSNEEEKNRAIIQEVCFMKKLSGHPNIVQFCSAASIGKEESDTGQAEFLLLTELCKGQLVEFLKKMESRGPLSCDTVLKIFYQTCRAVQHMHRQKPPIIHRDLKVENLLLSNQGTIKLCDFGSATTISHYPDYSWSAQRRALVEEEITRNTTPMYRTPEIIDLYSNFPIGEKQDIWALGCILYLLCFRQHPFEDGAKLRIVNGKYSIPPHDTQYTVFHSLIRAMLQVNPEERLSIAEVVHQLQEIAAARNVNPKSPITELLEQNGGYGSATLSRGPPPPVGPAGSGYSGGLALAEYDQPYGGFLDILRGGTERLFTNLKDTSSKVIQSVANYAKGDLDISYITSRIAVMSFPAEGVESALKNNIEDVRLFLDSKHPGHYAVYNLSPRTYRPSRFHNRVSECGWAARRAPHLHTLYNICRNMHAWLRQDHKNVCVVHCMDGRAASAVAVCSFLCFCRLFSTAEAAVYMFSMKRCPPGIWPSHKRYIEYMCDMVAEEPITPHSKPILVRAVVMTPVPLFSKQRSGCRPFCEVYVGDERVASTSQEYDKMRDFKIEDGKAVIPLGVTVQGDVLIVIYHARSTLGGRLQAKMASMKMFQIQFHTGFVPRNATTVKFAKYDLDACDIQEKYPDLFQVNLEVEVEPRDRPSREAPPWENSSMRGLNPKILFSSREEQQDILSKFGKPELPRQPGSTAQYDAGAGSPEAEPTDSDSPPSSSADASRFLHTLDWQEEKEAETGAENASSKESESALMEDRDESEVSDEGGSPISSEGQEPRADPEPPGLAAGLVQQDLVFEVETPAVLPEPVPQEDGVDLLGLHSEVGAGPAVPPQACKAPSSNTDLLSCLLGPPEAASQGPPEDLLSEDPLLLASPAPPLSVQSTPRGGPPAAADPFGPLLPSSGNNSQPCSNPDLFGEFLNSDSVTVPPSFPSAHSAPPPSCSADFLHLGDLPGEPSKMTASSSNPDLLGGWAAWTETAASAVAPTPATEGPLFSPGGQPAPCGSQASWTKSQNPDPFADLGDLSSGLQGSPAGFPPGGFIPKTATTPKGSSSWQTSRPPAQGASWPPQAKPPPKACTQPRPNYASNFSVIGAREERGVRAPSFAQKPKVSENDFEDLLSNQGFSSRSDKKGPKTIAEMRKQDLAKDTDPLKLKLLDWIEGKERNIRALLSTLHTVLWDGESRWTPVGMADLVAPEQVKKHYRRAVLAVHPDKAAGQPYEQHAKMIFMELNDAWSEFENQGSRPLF

[2] = target: protein kinases (human kinome) (Homo sapiens, UniProt P16591); conditions: for logFC of FER (P16591-1): down; for logFC of FER: FER P16591-1
protein kinases (human kinome) (Homo sapiens, UniProt P16591), sequence (P16591 whole entry): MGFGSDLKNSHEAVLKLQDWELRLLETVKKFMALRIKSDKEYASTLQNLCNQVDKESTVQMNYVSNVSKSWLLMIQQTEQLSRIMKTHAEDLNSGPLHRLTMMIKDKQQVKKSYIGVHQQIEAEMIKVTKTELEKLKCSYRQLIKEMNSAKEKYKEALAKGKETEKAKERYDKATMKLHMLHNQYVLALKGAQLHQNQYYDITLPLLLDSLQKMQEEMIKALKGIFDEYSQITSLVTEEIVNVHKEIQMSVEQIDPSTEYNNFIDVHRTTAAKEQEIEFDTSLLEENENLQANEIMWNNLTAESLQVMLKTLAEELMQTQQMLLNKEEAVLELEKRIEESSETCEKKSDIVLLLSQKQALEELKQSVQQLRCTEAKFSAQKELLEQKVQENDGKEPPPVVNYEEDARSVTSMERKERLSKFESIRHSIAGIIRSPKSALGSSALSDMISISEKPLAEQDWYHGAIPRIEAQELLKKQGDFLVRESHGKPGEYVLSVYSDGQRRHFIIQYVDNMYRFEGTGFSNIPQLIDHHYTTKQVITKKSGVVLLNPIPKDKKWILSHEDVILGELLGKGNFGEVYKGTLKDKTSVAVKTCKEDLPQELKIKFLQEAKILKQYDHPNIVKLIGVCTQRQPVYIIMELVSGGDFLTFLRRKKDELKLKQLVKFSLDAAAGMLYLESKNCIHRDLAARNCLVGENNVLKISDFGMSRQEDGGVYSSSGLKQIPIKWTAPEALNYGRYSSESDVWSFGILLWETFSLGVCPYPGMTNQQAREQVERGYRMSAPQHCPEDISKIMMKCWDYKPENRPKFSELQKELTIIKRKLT

[3] = target: T2, protein kinases (human kinome) (Homo sapiens, UniProt O75385); conditions: for logFC: ULK1 (O75385) protein abundance, degrader vs DMSO, down; for logFC ULK1: ULK1 O75385
T2 sequence (O75385 1-1050): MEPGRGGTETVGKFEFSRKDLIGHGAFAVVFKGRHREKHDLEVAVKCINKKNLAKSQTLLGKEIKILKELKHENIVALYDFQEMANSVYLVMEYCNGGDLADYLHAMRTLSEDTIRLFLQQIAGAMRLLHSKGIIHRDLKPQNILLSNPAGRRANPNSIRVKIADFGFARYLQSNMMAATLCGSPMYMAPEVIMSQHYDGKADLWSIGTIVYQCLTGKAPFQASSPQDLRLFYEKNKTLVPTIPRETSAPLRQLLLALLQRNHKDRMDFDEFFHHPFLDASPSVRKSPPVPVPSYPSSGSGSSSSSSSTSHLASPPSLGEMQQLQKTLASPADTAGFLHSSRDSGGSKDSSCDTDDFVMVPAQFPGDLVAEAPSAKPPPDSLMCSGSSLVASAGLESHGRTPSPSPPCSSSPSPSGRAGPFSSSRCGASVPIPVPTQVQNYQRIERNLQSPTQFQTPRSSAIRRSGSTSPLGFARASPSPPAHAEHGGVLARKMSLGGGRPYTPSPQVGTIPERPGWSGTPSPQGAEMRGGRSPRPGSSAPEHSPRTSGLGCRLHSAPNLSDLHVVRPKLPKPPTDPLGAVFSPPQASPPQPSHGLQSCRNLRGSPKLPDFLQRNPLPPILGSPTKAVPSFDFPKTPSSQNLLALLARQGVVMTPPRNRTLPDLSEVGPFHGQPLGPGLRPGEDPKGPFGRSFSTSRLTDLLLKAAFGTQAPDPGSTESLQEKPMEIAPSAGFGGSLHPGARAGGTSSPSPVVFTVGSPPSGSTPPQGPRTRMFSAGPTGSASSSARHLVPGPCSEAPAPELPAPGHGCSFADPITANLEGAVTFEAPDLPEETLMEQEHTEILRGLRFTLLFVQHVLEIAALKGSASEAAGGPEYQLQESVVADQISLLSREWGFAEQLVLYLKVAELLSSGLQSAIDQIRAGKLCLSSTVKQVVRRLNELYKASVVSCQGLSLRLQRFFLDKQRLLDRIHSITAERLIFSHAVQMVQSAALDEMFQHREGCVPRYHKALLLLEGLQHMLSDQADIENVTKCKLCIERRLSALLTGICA

[4] = GAK (O14976), direction down, experiment wp081
[5] = GAK (O14976), direction down, experiment wp071

Cc1ccc(C(=O)Nc2ccc(CN3CCN(CCOCCOCCNC(=O)CNc4cccc5c4C(=O)N(C4CCC(=O)NC4=O)C5=O)CC3)c(C(F)(F)F)c2)cc1C#Cc1cnc2cccnn12 (stereo not drawn) [TL13.150]
logFC of GAK (O14976) ([1]; Experiment wp081, down): −1.014 | logFC GAK [1, 4]: −1.014 | logFC of FER (P16591-1) ([2]; Experiment wp081): −1.511 | logFC of FER ([2]; experiment wp081): −1.511

Cc1cnc(Nc2ccc(N3CCN(CCOCCOCCNC(=O)COc4cccc5c4C(=O)N(C4CCC(=O)NC4=O)C5=O)CC3)cc2)nc1Nc1cccc(S(=O)(=O)NC(C)(C)C)c1 (stereo not drawn) [JWG.118]
logFC of GAK (O14976) ([1]; Experiment wp071, down): −1.972 | logFC GAK [1, 5]: −1.972

CC(C)S(=O)(=O)c1ccccc1Nc1nc(Nc2ccc(N3CCN(CCOCCOCCC(=O)NCCNc4cccc5c4CN(C4CCC(=O)NC4=O)C5=O)CC3)cc2)ncc1Cl (stereo not drawn) [TL13.97]
logFC of FER (P16591-1) ([2]; Experiment wp137): −2.412 | logFC of FER ([2]; experiment wp137): −2.412 | logFC [3]: −1.877 | logFC ULK1 ([3]; experiment wp137): −1.877

CS(=O)(=O)Nc1cccc(-c2csc3cnc(Nc4ccc(N5CCN(CCOCCOCCOc6cccc7c6C(=O)N(C6CCC(=O)NC6=O)C7=O)CC5)cc4)nc23)c1 (stereo not drawn) [RSS0628]
logFC [3]: −0.5583 | logFC ULK1 ([3]; experiment wp045): −0.5583

CC(C)S(=O)(=O)c1ccccc1Nc1nc(Nc2ccc(N3CCN(CCOCCNC(=O)CNc4ccc5c(c4)C(=O)N(C4CCC(=O)NC4=O)C5=O)CC3)cc2)ncc1Cl (stereo not drawn) [SK.3.93]
logFC of GAK (O14976) ([1]; Experiment wp016, down): −0.4334 | logFC GAK ([1]; GAK (O14976), direction down, experiment wp016): −0.4334 | logFC of FER (P16591-1) ([2]; Experiment wp016): −2.64 | logFC of FER ([2]; experiment wp016): −2.64

Cc1ccc(NC(=O)c2cccc(C(F)(F)F)c2)cc1N1Cc2cnc(Nc3ccc(N4CCN(CCCCCCOc5cccc6c5C(=O)N(C5CCC(=O)NC5=O)C6=O)CC4)nc3)nc2N(C)C1=O (stereo not drawn) [DB0663]
logFC of GAK (O14976) ([1]; Experiment wp045, down): −0.691 | logFC GAK ([1]; GAK (O14976), direction down, experiment wp045): −0.691 | logFC of FER (P16591-1) ([2]; Experiment wp045): −0.9581 | logFC of FER ([2]; experiment wp045): −0.9581

O=C(COc1cccc2c1C(=O)N(C1CCC(=O)NC1=O)C2=O)NCCCCCCCN1CCc2cc(Nc3ncc(C4CC4)c(NCCCNC(=O)C4CCC4)n3)ccc2C1 (stereo not drawn) [BSJ.04.178]
logFC of GAK (O14976) ([1]; Experiment wp134, down): −2.402 | logFC GAK ([1]; GAK (O14976), direction down, experiment wp134): −2.402 | logFC [3]: −1.683 | logFC ULK1 ([3]; experiment wp134): −1.683

Cc1cc(Nc2ncc(Br)c(Nc3cccc(F)c3C(N)=O)n2)ccc1S(=O)(=O)NCCOCCOCCOCCOCCNc1cccc2c1C(=O)N(C1CCC(=O)NC1=O)C2=O (stereo not drawn) [TMX.02.174]
logFC of FER (P16591-1) ([2]; Experiment wp146): −1.089 | logFC of FER ([2]; experiment wp146): −1.089

Cc1ccc(C(=O)Nc2ccc(CN3CCN(CCCOCCOCCOCCNC(=O)COc4cccc5c4C(=O)N(C4CCC(=O)NC4=O)C5=O)CC3)c(C(F)(F)F)c2)cc1C#Cc1cnc2cccnn12 (stereo not drawn) [SB1.G.187]
logFC of GAK (O14976) ([1]; Experiment wp056, down): −1.543 | logFC of GAK (O14976) ([1]; Experiment wp103, down): −1.478 | logFC of GAK (O14976) ([1]; Experiment wp105, down): −1.088 | logFC of GAK (O14976) ([1]; Experiment wp107, down): −1.768 | logFC of GAK (O14976) ([1]; Experiment wp114, down): −0.3578 | logFC GAK ([1]; GAK (O14976), direction down, experiment wp056): −1.543 | logFC GAK ([1]; GAK (O14976), direction down, experiment wp103): −1.478 | logFC GAK ([1]; GAK (O14976), direction down, experiment wp105): −1.088 | logFC GAK ([1]; GAK (O14976), direction down, experiment wp107): −1.768 | logFC GAK ([1]; GAK (O14976), direction down, experiment wp114): −0.3578 | logFC GAK ([1]; GAK (O14976), experiment wp172, down): −1.007 | logFC GAK ([1]; GAK, accession O14976, experiment wp172, direction of change down): −1.007 | logFC of FER (P16591-1) ([2]; Experiment wp056): −1.267 | logFC of FER (P16591-1) ([2]; Experiment wp103): −1.672 | logFC of FER (P16591-1) ([2]; Experiment wp105): −1.432 | logFC of FER (P16591-1) ([2]; Experiment wp107): −1.76 | logFC of FER ([2]; experiment wp056): −1.267 | logFC of FER ([2]; experiment wp103): −1.672 | logFC of FER ([2]; experiment wp105): −1.432 | logFC of FER ([2]; experiment wp107): −1.76

Cc1cnc(Nc2ccc(N3CCN(CCCCCCC(=O)N[C@H](C(=O)N4C[C@H](O)C[C@H]4C(=O)N[C@@H](C)c4ccc(-c5scnc5C)cc4)C(C)(C)C)CC3)cc2)nc1Nc1cccc(S(=O)(=O)NC(C)(C)C)c1 [JWG.123]
logFC GAK ([1]; GAK (O14976), experiment wp195, down): −0.5246 | logFC GAK ([1]; GAK, accession O14976, experiment wp195, direction of change down): −0.5246

NC(=O)c1c(F)cccc1Nc1nc(Nc2ccc(S(=O)(=O)NCCOCCOCCOCCOCCNc3cccc4c3C(=O)N(C3CCC(=O)NC3=O)C4=O)cc2)ncc1Br (stereo not drawn) [TMX.02.138]
logFC of FER (P16591-1) ([2]; Experiment wp146): −0.8083 | logFC of FER ([2]; experiment wp146): −0.8083

Cn1c(=O)c(-c2c(Cl)cccc2Cl)cc2cnc(Nc3ccc(OCCNC(=O)CCCCCCNC(=O)COc4cccc5c4C(=O)N(C4CCC(=O)NC4=O)C5=O)cc3)nc21 (stereo not drawn) [SB1.G.192.1]
logFC of GAK (O14976) ([1]; Experiment wp071, down): −1.765 | logFC of GAK (O14976) ([1]; Experiment wp081, down): −1.409 | logFC of GAK (O14976) ([1]; Experiment wp131, down): −1.475 | logFC GAK [1, 5]: −1.765 | logFC GAK [1, 4]: −1.409 | logFC GAK ([1]; GAK (O14976), direction down, experiment wp131): −1.475

Cc1ncsc1-c1ccc([C@H](C)NC(=O)[C@@H]2C[C@@H](O)CN2C(=O)[C@@H](NC(=O)CCCCCN2CCN(c3ccc(Nc4ncc5scc(-c6cccc(NS(C)(=O)=O)c6)c5n4)cc3)CC2)C(C)(C)C)cc1 [RSS0680, (2S,4R)-1-((S)-3,3-Dimethyl-2-(6-(4-(4-((7-(3-(methylsulfonamido)phenyl)thieno[3,2-d]pyrimidin-2-yl)amino)phenyl)piperazin-1-yl)hexanamido)butanoyl)-4-hydroxy-N—((S)-1-(4-(4-methylthiazol-5yl)phenyl)ethyl)pyrrolidine-2-carboxamide]
logFC of GAK (O14976) ([1]; Experiment wp080, down): −0.7773 | logFC of GAK (O14976) ([1]; Experiment wp117, down): −0.6853 | logFC GAK ([1]; GAK (O14976), direction down, experiment wp080): −0.7773 | logFC GAK ([1]; GAK (O14976), direction down, experiment wp117): −0.6853 | logFC [3]: −0.4057 and −0.4996 | logFC ULK1 ([3]; experiment wp080): −0.4057 | logFC ULK1 ([3]; experiment wp117): −0.4996

From patent US20240269139A1, “COMPOUNDS FOR TARGETED PROTEIN DEGRADATION OF KINASES” (DANA-FARBER CANCER INSTITUTE, INC., priority 2020, published 2024)
